According to patent EP4644383A1 (Jiangsu Yahong Meditech Co., Ltd., priority 2022, dated 2024):
Read-outs that look alike come from different tables or passages of the source.

Assays:
FGFR4 = molecular target: T1, FGFR4 (Homo sapiens, UniProt P22455); test: FGFR4 kinase activity inhibition assay (LanthaScreen TR-FRET); assay type: biochemical
T1 construct: FGFR4's cytoplasmic domain [460-802 (terminal) amino acids]; purchased Carna 08-136
How it was run: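 GST-tagged cytoplasmic domains (FGFR2 aa 399-821; FGFR4 aa 460-802) were preincubated 10 min at 23 °C with compound (top 1 µM, threefold dilutions). Then 28 nM fluorescein-poly GT and 28 µM ATP were added for 30 min at 23 °C in HEPES pH 7.5 buffer. Tb-PY20 TR-FRET 520/495 ratio gave % inhibition versus DMSO and no-enzyme controls.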

[1] = test system: Ba/F3-FGFR3-BAIAP2L1 cells; test: Inhibition of proliferation activity of Ba/F3-FGFR3-BAIAP2L1 cells (CellTiter-Glo); assay type: cell-based; settings: for IC50: read-out: IC50 (nM) Ba/F3-FGFR3-BAIAP2L1; for Selectivity (X) FGFR1/FGFR3: ratio of IC50 Ba/F3-BCR-FGFR1 to IC50 Ba/F3-FGFR3-BAIAP2L1
Protocol: The present experiment used CellTiter-Glo® Luminescent Cell Viability Assay (Promega: G7573) kit, which was a homogeneous cell viability detection method and determined the cell viability of cultured cells by quantifying ATP. • ① Ba/F3-BCR-FGFR1 or Ba/F3-FGFR3-BAIAP2L1 cells were cultured in 1640 complete medium (Gibco: 11879020) (10% FBS (Gibco: 10091-148)+1% Pen Strep (Gibco: 15140122)) under the condition of 37°C and 5% CO2. • (2) The cells in logarithmic growth phase were harvested and counted using a […]. The trypan blue exclusion method was used to detect cell viability to ensure the cell viability was above 90%. • ③ The cell density was adjusted using 1640 complete medium, and then, the cells were seeded into a 96-well cell culture plate at 90 µL/well with a total of 2000 cells. • ④ A 10-fold drug solution was prepared starting from a maximum drug concentration of 10 µM and 4-fold serially diluted into10 concentrations. […] The luminescence values were read to collect the data. • ⑩ The data were analyzed using XLFit excel plugin version 5.5.0.5, and fitted with non-linear S-curve regression to obtain the dose-response curves and thus calculate the IC50 values. Y = Bottom + (Top-Bottom)/((1+(IC50/X))^(∧) HillSlope [formula]
"Top" refers to the maximum response, "Bottom" refers to the minimum response, and "HillSlope" refers to the slope of the curve.
"Max" represents the average value of the cell control+DMSO, and "Min" represents the average value of the medium control+DMSO.

FGFR3 = molecular target: T2, FGFR3 (Homo sapiens, UniProt P22607); test: FGFR3 kinase activity inhibition assay (LanthaScreen TR-FRET); assay type: biochemical; settings: for Selectivity (X) FGFR1/FGFR3: ratio of IC50 FGFR1/FGFR3, selectivity towards FGFR3; for Selectivity (X) FGFR2/FGFR3: ratio of IC50 FGFR2/FGFR3, selectivity towards FGFR3; for Selectivity (X) FGFR4/FGFR3: ratio of IC50 FGFR4/FGFR3, selectivity towards FGFR3
T2 construct: FGFR3's cytoplasmic domain [436-806 (terminal) amino acids]; purchased Carna 08-135
How it was run: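 Read-out is TR-FRET, with the 520 nm/495 nm emission ratio normalised to DMSO (max) and enzyme-free (min) controls. Enzyme was the FGFR3 cytoplasmic domain, residues 436-806. EDTA (10 mM) stopped the reaction, followed by 60 min at 22 °C before reading.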

[2] = FGFR4 kinase, TR-FRET, read-out: IC50 (nM) FGFR4
[3] = FGFR3 kinase, TR-FRET, read-out: IC50 (nM) FGFR3
[4] = Ba/F3-FGFR3-BAIAP2L1 cells, 72 hours, CTG

T2 sequence (P22607 436-806): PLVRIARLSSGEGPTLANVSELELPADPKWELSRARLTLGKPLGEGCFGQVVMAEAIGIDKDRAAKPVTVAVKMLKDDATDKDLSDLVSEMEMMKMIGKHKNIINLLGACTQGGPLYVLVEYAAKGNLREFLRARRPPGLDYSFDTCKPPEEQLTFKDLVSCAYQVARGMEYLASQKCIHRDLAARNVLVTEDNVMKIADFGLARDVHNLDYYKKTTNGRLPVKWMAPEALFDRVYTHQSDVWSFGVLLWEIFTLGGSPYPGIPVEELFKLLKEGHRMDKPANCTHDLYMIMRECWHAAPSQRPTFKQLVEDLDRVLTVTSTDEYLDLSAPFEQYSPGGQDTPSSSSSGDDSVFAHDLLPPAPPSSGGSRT
T1 sequence (P22455 460-802): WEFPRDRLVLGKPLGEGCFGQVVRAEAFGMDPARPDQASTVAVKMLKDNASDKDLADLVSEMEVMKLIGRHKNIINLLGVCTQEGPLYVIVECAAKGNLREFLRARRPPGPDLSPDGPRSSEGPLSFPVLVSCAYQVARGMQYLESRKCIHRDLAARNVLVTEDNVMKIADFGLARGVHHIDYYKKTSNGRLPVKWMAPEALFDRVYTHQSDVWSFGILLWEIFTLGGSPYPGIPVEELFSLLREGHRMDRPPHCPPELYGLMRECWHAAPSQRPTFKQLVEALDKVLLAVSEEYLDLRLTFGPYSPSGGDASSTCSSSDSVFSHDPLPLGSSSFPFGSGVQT

| SMILES | IC50 (FGFR4; [2]) | IC50 ([1]; 72 h) | IC50 (FGFR3; [3]) | Selectivity (X) FGFR1/FGFR3 (FGFR3) | Selectivity (X) FGFR2/FGFR3 (FGFR3) | Selectivity (X) FGFR4/FGFR3 (FGFR3) | IC50 [1, 4] | Selectivity (X) FGFR1/FGFR3 [1] | IC50 (FGFR4) | IC50 (FGFR3) |
| --- | --- | --- | --- | --- | --- | --- | --- | --- | --- | --- |
| C[C@@H](Oc1ccc2[nH]nc(-c3ccc(S(C)(=N)=O)nc3)c2c1)c1c(Cl)cncc1Cl (stereo partly drawn) [Comparative Example 85, (5-(5-((R)-1-(3,5-dichloropyridin-4-yl)ethoxy)-1H-indazol-3-yl)pyridin-2-yl)(imino)(methyl)-sulfanone, reference compound] | 10 to 100 nM | 5.4 nM |  |  |  |  |  |  |  |  |
| C[C@@H](Oc1cc(F)c2[nH]nc(-c3cnn(CCN4CCOCC4)c3)c2c1)c1c(Cl)cncc1Cl [Example 12, (R)-4-(2-(4-(5-(1-(3,5-dichloropyridin-4-yl)ethoxy)-7-fluoro-1H-indazol-3-yl)-1H-pyrazol-1-yl)ethyl)morph oline] | 10 to 100 nM |  | 1 to 10 nM | B (B represents 20 ≤ multiple X<50) | A (A represents 1 ≤ multiple X<20) | C (C represents 50 ≤ multiple X<100) | 4.6 nM | 129 X |  |  |
| C[C@@H](Oc1ccc2[nH]nc(-c3cnn(C)c3)c2n1)c1c(Cl)cncc1Cl [Example 29, (R)-5-(1-(3,5-dichloropyridin-4-yl)ethoxy)-3-(1-methyl-1H-pyrazol-4-yl)-1H-pyrazolo[4,3-b]pyridine] | 1 to 10 nM |  | < 1 nM | A (A represents 1 ≤ multiple X<20) | A (A represents 1 ≤ multiple X<20) | A (A represents 1 ≤ multiple X<20) | 0.3 nM | 127 X |  |  |
| C[C@@H](Oc1ccc2[nH]nc(-c3cnn(CCN4CCN(C)C(=O)C4)c3)c2n1)c1c(Cl)cncc1Cl [Example 54, (R)-4-(2-(4-(5-(1-(3,5-dichloropyridin-4-yl)ethoxy)-1H-pyrazolo[4,3-b]pyridin-3-yl)-1H-pyrazol-1-yl)ethyl)-1-methylpiperazin-2-one] |  |  | < 1 nM | A (A represents 1 ≤ multiple X<20) |  |  | 1.2 nM | 147 X |  |  |
| C[C@@H](Oc1ccc2[nH]nc(-c3cnn(CCN4CCS(=O)(=O)CC4)c3)c2n1)c1c(Cl)cncc1Cl [Example 55, (R)-4-(2-(4-(5-(1-(3,5-dichloropyridin-4-yl)ethoxy)-1H-pyrazolo[4,3-b]pyridin-3-yl)-1H-pyrazol-1-yl)ethyl)thiomorph oline 1,1-dioxide] |  |  | < 1 nM | A (A represents 1 ≤ multiple X<20) |  |  | 0.7 nM | 126 X |  |  |
| CC(Oc1ccc2[nH]nc(-c3cnn(C)c3)c2c1)c1cccc2ncccc12 (centres unmarked) [Example 88, 5-(1-((3-(1-methyl-1H-pyrazol-4-yl)-1H-indazol-5-yl)oxy)ethyl)quin oline] | 10 to 100 nM |  | 1 to 10 nM | A (A represents 1 ≤ multiple X<20) | A (A represents 1 ≤ multiple X<20) | C (C represents 50 ≤ multiple X<100) | 19 nM | 180 X |  |  |
| CC(Oc1ccc2[nH]nc(-c3cnn(C)c3)c2c1)c1cccc2nccnc12 (centres unmarked) [Example 92, 5-(1-((3-(1-methyl-1H-pyrazol-4-yl)-1H-indazol-5-yl)oxy)ethyl)quin oxaline] | 1 to 10 nM |  | < 1 nM | A (A represents 1 ≤ multiple X<20) | A (A represents 1 ≤ multiple X<20) | A (A represents 1 ≤ multiple X<20) | 2.8 nM | 35 X |  |  |
| Cc1ccc2ncccc2c1C(C)Oc1ccc2[nH]nc(-c3cnn(C)c3)c2c1 (centres unmarked) [Example 95, 6-methyl-5-(1-((3-(1-methyl-1H-pyrazol-4-yl)-1H-indazol-5-yl)oxy)ethyl)quinolinee] |  |  |  | C (C represents 50 ≤ multiple X<100) | A (A represents 1 ≤ multiple X<20) | C (C represents 50 ≤ multiple X<100) | 8 nM | 51 X | 10 to 100 nM | 1 to 10 nM |
| CC(Oc1ccc2[nH]nc(-c3cnn(C)c3)c2c1)c1cccn2ncnc12 (centres unmarked) [Example 101, 8-(1-((3-(1-methyl-1H-pyrazol-4-yl)-1H-indazol-5-yl)oxy)ethyl)-[1,2,4]triazolo[1,5-a]pyridine] |  |  | 1 to 10 nM | A (A represents 1 ≤ multiple X<20) |  |  | 10.6 nM | 23 X |  |  |
| CC(Oc1ccc2[nH]nc(-c3cnn(C)c3)c2c1)c1c(C(F)F)ccc2ncccc12 (centres unmarked) [Example 127, 6-(difluoromethyl)-5-(1-((3-(1-methyl-1H-pyrazol-4-yl)-1H-indazol-5-yl)oxy)ethyl)quinoline] | > 100 nM |  | < 1 nM | C (C represents 50 ≤ multiple X<100) | A (A represents 1 ≤ multiple X<20) | C (C represents 50 ≤ multiple X<100) | 4.8 nM | 195 X |  |  |
| CC(Oc1ccc2[nH]nc(-c3cnn(C)c3)c2c1)c1c(CF)ccc2ncccc12 (centres unmarked) [Example 130, 6-(fluoromethyl)-5-(1-((3-(1-methyl-1H-pyrazol-4-yl)-1H-indazol-5-yl)oxy)ethyl)q uinoline] | 10 to 100 nM |  |  |  |  |  | 12.9 nM |  |  |  |
| CC(Oc1ccc2[nH]nc(-c3cnn(C)c3)c2c1)c1cc(Cl)cc2nccnc12 (centres unmarked) [Example 136, 7-chloro-5-(1-((3-(1-methyl-1H-pyrazol-4-yl)-1H-indazol-5-yl)oxy)ethyl)qu inoxaline] | 10 to 100 nM |  | < 1 nM | B (B represents 20 ≤ multiple X<50) | A (A represents 1 ≤ multiple X<20) | C (C represents 50 ≤ multiple X<100) | 3.4 nM | 111 X |  |  |
| Cc1cc2nccnc2c(C(C)Oc2ccc3[nH]nc(-c4cnn(C)c4)c3c2)n1 (centres unmarked) [Example 183, 7-methyl-5-(1-((3-(1-methyl-1H-pyrazol-4-yl)-1H-indazol-5-yl)oxy)ethyl)pyridino [3,4-b]pyrazine] | 10 to 100 nM |  | < 1 nM | B (B represents 20 ≤ multiple X<50) | A (A represents 1 ≤ multiple X<20) | B (B represents 20 ≤ multiple X<50) | 0.4 nM | 139 X |  |  |
| COCC(=O)N1CC(n2cc(-c3n[nH]c4ccc(OC(C)c5cccc6nccnc56)cc34)cn2)C1 (centres unmarked) [Example 188, 2-methoxy-1-(3-(4-(5-(1-(quinoxalin-5-yl)ethoxy)-1H-indazol-3-yl)-1H-pyrazol-1-yl)azetidin-1-yl)ethan-1-one] | 10 to 100 nM |  | < 1 nM | B (B represents 20 ≤ multiple X<50) | A (A represents 1 ≤ multiple X<20) | B (B represents 20 ≤ multiple X<50) | 3.1 nM | 91 X |  |  |
| CC(Oc1cc2c(-c3cnn(C)c3)n[nH]c2cc1F)c1cc(Cl)cc2nccnc12 (centres unmarked) [Example 227, 7-chloro-5-(1-((6-fluoro-3-(1-methyl-1H-pyrazol-4-yl)-1H-indazol-5-yl)oxy)ethyl)qu inoxaline] |  |  | < 1 nM | A (A represents 1 ≤ multiple X<20) |  |  | 3.1 nM | 126 X |  |  |
